Assay results from ChEMBL document CHEMBL5291721, “A preclinical secondary pharmacology resource illuminates target-adverse drug reaction associations of marketed drugs” (Nat Commun, 2023).

How the values were obtained:
[1] = molecular target: T1, Muscarinic acetylcholine receptor M1 (Homo sapiens, UniProt P11229); assay type: functional, cell-based
T1 sequence (P11229 whole entry): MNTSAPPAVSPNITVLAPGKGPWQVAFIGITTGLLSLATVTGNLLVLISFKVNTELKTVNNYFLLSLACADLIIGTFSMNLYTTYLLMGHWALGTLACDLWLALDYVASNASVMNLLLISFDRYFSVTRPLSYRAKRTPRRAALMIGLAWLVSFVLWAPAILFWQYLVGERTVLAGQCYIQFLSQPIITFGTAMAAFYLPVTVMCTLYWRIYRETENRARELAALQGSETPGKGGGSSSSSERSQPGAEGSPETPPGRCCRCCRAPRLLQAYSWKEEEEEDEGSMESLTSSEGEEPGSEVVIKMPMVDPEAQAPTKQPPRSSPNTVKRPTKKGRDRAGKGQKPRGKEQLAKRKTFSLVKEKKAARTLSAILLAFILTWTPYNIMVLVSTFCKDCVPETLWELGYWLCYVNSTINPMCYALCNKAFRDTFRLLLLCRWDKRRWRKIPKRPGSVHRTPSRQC

[2] = molecular target: Sodium-dependent dopamine transporter (Homo sapiens, UniProt Q01959)
[3] = molecular target: 3',5'-cyclic-AMP phosphodiesterase 4D (Homo sapiens, UniProt Q08499); assay type: functional
[4] = molecular target: Delta-type opioid receptor (Homo sapiens, UniProt P41143)
[5] = molecular target: T2, Alpha-1A adrenergic receptor (Homo sapiens, UniProt P35348); assay type: functional, cell-based
T2 sequence (P35348 whole entry): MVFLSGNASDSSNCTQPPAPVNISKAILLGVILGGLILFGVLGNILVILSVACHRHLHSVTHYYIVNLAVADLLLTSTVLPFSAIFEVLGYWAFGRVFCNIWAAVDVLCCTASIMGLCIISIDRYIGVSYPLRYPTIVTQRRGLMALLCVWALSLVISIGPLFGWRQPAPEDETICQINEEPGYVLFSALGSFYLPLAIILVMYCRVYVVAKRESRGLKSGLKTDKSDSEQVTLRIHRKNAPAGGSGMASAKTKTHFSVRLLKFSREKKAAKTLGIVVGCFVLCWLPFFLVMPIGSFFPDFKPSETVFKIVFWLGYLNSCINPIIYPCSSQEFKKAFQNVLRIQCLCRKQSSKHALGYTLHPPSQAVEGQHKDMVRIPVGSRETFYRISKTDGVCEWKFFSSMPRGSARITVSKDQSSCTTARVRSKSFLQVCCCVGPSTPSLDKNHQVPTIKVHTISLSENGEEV

[6] = molecular target: T3, Alpha-2A adrenergic receptor (Homo sapiens, UniProt P08913); assay type: functional, cell-based
T3 sequence (P08913 whole entry): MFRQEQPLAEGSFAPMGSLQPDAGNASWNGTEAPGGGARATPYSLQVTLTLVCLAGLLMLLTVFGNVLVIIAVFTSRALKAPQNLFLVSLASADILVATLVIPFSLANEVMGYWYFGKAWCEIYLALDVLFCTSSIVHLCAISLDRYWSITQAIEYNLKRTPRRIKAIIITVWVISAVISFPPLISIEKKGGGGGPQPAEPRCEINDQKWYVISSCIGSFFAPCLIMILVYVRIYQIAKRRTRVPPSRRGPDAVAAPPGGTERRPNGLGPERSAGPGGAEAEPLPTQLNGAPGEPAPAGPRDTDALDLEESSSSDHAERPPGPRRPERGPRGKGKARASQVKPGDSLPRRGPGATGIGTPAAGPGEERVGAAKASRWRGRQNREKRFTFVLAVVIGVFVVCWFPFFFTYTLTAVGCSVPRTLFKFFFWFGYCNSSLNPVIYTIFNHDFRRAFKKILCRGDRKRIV

[7] = molecular target: 5-hydroxytryptamine receptor 2A (Homo sapiens, UniProt P28223); assay type: functional, cell-based
[8] = molecular target: T4, Cholecystokinin receptor type A (Homo sapiens, UniProt P32238)
T4 sequence (P32238 whole entry): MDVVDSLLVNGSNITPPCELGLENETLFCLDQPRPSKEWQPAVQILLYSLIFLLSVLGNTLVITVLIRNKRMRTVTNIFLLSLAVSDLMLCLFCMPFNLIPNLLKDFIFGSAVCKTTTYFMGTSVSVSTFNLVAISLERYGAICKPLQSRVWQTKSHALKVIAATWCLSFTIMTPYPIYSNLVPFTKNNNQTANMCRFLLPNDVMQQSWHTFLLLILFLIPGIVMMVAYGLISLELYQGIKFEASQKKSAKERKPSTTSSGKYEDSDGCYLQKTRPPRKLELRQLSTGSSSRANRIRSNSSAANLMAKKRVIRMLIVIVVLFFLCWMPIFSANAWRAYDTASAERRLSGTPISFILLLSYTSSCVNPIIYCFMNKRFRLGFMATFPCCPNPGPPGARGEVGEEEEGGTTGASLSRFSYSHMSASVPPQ

[9] = molecular target: Vasopressin V1a receptor (Homo sapiens, UniProt P37288)
[10] = molecular target: Beta-2 adrenergic receptor (Homo sapiens, UniProt P07550); assay type: functional, cell-based
[11] = molecular target: Beta-1 adrenergic receptor (Homo sapiens, UniProt P08588); assay type: functional
[12] = molecular target: Histamine H3 receptor (Homo sapiens, UniProt Q9Y5N1)
Further: assay procedure not described here.

Sequence of Sodium-dependent dopamine transporter (Q01959 whole entry): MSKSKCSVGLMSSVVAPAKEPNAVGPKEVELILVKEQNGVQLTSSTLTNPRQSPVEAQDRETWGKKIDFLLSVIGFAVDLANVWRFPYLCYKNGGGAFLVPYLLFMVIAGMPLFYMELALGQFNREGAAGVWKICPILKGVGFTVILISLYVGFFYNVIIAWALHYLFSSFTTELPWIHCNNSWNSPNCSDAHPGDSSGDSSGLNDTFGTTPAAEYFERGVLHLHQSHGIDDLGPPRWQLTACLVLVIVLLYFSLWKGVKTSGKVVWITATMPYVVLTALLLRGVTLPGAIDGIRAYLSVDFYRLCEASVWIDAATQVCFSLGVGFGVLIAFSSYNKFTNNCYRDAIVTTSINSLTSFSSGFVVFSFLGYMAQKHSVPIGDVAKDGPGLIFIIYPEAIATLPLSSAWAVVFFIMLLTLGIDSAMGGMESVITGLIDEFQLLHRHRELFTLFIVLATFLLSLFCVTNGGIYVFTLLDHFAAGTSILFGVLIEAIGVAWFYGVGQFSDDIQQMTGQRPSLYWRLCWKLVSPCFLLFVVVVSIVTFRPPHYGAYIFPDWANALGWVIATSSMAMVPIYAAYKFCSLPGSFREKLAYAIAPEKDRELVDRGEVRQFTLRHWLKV
Sequence of 3',5'-cyclic-AMP phosphodiesterase 4D (Q08499 whole entry): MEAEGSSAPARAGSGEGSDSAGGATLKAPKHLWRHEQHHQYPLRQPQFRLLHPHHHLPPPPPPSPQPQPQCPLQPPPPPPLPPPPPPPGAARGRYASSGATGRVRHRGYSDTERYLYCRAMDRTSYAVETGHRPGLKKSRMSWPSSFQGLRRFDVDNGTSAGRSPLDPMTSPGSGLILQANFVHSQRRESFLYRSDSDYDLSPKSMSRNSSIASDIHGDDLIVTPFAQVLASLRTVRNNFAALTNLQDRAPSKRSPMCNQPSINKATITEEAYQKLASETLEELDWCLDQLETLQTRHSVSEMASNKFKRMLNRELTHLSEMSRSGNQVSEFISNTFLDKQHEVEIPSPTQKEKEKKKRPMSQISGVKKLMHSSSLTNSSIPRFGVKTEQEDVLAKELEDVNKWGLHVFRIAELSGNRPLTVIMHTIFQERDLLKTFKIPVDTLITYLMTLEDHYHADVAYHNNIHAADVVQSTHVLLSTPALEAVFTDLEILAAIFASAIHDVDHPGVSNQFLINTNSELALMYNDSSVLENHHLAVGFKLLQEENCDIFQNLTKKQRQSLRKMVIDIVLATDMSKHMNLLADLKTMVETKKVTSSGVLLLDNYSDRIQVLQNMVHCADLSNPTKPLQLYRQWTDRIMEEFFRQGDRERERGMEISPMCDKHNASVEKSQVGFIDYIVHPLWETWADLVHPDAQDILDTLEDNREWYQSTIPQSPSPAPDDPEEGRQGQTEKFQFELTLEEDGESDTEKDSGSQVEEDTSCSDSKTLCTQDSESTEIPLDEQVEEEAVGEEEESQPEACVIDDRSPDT
Sequence of Delta-type opioid receptor (P41143 whole entry): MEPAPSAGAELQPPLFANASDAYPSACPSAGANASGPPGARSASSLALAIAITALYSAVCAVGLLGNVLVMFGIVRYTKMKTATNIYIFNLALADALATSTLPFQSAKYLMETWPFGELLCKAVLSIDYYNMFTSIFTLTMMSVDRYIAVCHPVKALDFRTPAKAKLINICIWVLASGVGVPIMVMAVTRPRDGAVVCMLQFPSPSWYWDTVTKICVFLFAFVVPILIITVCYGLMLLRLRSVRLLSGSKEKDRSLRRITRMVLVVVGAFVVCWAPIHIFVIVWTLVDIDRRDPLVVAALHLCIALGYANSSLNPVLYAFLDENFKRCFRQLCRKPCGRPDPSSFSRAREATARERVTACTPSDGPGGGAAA
Sequence of Beta-1 adrenergic receptor (P08588 whole entry): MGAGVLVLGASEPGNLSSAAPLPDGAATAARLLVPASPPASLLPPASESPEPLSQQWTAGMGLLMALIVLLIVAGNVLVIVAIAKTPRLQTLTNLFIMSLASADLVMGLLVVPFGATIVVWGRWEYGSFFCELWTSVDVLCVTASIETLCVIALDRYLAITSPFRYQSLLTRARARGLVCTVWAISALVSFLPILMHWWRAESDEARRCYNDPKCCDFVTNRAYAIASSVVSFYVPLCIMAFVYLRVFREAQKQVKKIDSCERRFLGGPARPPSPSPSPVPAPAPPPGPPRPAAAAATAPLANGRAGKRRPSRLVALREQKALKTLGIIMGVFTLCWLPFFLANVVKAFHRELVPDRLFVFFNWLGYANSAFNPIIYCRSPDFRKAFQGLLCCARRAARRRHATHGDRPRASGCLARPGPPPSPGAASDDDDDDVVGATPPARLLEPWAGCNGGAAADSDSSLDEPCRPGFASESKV
Sequence of Beta-2 adrenergic receptor (P07550 whole entry): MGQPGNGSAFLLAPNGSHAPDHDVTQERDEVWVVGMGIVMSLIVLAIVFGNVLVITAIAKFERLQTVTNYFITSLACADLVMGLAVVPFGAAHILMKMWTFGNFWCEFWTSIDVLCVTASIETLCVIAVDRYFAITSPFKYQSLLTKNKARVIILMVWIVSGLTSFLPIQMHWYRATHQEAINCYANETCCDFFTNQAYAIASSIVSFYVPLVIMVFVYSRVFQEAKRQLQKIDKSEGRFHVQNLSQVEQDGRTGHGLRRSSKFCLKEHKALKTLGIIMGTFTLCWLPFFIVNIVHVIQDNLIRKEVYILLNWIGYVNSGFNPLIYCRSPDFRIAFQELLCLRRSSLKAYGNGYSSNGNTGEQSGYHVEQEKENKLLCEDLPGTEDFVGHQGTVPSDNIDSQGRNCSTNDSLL
Sequence of Histamine H3 receptor (Q9Y5N1 whole entry): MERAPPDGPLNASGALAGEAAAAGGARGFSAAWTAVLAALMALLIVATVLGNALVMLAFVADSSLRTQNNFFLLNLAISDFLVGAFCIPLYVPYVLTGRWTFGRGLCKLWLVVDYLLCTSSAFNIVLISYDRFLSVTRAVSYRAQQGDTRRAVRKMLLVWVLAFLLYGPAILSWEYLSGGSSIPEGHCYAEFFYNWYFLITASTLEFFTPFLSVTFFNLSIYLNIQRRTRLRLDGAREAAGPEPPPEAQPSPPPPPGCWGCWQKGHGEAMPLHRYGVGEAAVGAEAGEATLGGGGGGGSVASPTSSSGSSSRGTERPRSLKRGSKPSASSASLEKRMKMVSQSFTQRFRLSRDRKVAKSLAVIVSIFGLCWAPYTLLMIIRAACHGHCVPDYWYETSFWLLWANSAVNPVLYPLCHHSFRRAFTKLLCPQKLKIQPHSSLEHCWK
Sequence of Vasopressin V1a receptor (P37288 whole entry): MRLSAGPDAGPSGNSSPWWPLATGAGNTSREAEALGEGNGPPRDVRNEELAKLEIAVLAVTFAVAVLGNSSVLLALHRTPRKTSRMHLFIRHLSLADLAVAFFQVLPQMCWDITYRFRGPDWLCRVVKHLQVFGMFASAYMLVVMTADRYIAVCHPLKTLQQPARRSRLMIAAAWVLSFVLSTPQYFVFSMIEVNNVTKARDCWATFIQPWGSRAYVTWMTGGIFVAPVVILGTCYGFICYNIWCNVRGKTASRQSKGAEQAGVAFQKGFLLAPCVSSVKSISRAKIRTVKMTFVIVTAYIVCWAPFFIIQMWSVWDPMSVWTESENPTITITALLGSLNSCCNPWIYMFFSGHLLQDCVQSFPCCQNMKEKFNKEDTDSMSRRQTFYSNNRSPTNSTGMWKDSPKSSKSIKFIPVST
Sequence of 5-hydroxytryptamine receptor 2A (P28223 whole entry): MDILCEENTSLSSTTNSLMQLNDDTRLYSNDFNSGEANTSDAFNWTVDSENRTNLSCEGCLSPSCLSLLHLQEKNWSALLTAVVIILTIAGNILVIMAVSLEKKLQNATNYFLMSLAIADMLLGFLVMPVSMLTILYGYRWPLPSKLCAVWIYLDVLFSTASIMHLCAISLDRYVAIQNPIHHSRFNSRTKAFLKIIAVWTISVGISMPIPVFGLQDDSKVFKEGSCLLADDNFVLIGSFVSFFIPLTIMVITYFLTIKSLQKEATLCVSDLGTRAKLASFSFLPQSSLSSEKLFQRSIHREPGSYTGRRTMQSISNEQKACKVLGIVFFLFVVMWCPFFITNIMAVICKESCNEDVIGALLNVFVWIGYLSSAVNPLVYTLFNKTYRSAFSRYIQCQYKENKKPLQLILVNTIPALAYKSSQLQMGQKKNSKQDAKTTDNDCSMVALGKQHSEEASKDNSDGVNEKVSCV

C[C@@H]1C[C@H]2[C@@H]3C[C@H](F)C4=CC(=O)C=C[C@]4(C)[C@@]3(F)[C@@H](O)C[C@]2(C)[C@@]1(O)C(=O)COC(=O)C(C)(C)C [FLUMETHASONE PIVALATE]
AC50 [1]: > 30 µM

O=C(O)c1cccc(-c2noc(-c3ccccc3F)n2)c1
AC50 [2]: > 30 µM | AC50 [3]: > 30 µM | AC50 [1]: > 30 µM

O=[N+]([O-])c1cncn1CCN1CCOCC1 [NIMORAZOLE]
AC50 [1]: > 30 µM

CCCCN(CCCC)CCCOC(=O)c1ccc(N)cc1 [BUTACAINE]
AC50 [1]: > 30 µM

CCS(=O)(=O)N1CC(CC#N)(n2cc(-c3ncnc4[nH]ccc34)cn2)C1 [BARICITINIB]
AC50 [1]: > 30 µM

O=C1CN=C(c2ccccc2)c2c(sc3c2CCCC3)N1 [BENTAZEPAM]
AC50 [1]: > 30 µM

CC/C=C\C/C=C\C/C=C\C/C=C\C/C=C\CCCC(=O)O [ICOSAPENT]
AC50 [1]: > 30 µM

NC(=O)c1cccc2cn(-c3ccc([C@@H]4CCCNC4)cc3)nc12 [NIRAPARIB]
AC50 [1]: > 30 µM

CCC1C(C)=NN=C(c2ccc(OC)c(OC)c2)c2cc(OC)c(OC)cc21 (configuration not stated) [TOFISOPAM]
AC50 [1]: > 30 µM

CCO[C@@H](Cc1ccc(OCCn2c(C)ccc2-c2ccc(SC)cc2)cc1)C(=O)O [SAROGLITAZAR]
AC50 [1]: 18.7 µM

CCN(CC)CCNc1ccc(C)c2sc3ccccc3c(=O)c12 [LUCANTHONE]
AC50 [1]: > 30 µM

CC(C(O)c1ccc(O)cc1)N1CCC(Cc2ccccc2)CC1 (configuration not stated) [IFENPRODIL]
AC50 [4]: > 30 µM | AC50 [5]: 0.45 µM | AC50 [6]: 3.8 µM | AC50 [2]: 1.2 µM | AC50 [3]: > 30 µM | AC50 [7]: 9.6 µM | AC50 [8]: > 30 µM | AC50 [9]: > 30 µM | AC50 [10]: > 30 µM | AC50 [11]: 23 µM | AC50 [12]: > 30 µM

COc1ccc(-c2cc(=O)c3c(O)cc(O[C@@H]4O[C@H](CO[C@@H]5O[C@@H](C)[C@H](O)[C@@H](O)[C@H]5O)[C@@H](O)[C@H](O)[C@H]4O)cc3o2)cc1O [DIOSMIN]
AC50 [1]: > 30 µM

CCOC(=O)C(c1c(O)c2ccccc2oc1=O)c1c(O)c2ccccc2oc1=O [ETHYL BISCOUMACETATE]
AC50 [1]: > 30 µM

CC(C)(N)Cc1ccc(Cl)cc1 [CHLORPHENTERMINE]
AC50 [4]: > 30 µM | AC50 [5]: > 30 µM | AC50 [6]: > 10 µM | AC50 [2]: 7.59 µM | AC50 [3]: > 30 µM | AC50 [7]: > 30 µM | AC50 [8]: > 30 µM | AC50 [9]: > 30 µM | AC50 [10]: > 30 µM | AC50 [11]: > 10 µM | AC50 [12]: > 10 µM

COc1cc2c(cc1OC)[C@H]1C[C@@H](OC(=O)[C@@H](N)C(C)C)[C@H](CC(C)C)CN1CC2 [VALBENAZINE]
AC50 [1]: > 30 µM

C[C@@H]1O[C@@H](OC[C@H]2O[C@@H](Oc3c(-c4ccc(OCCO)c(OCCO)c4)oc4cc(OCCO)cc(O)c4c3=O)[C@H](O)[C@@H](O)[C@@H]2O)[C@H](O)[C@H](O)[C@H]1O [TROXERUTIN]
AC50 [1]: > 30 µM

CC[C@@H]1/C=C(\C)C[C@H](C)C[C@H](OC)[C@H]2O[C@@](O)(C(=O)C(=O)N3CCCC[C@H]3C(=O)O[C@H](/C(C)=C/[C@@H]3CC[C@H](Cl)[C@H](OC)C3)[C@H](C)[C@@H](O)CC1=O)[C@H](C)C[C@@H]2OC [PIMECROLIMUS]
AC50 [1]: > 30 µM

CS(=O)(=O)Nc1cc2occ(NC=O)c(=O)c2cc1Oc1ccccc1 [IGURATIMOD]
AC50 [4]: > 30 µM | AC50 [2]: > 30 µM | AC50 [3]: 9.8 µM | AC50 [1]: > 30 µM

Cc1nc(-c2ccc(OCC(C)C)c(C#N)c2)sc1C(=O)O [FEBUXOSTAT]
AC50 [1]: > 30 µM

CC(=O)OC(C)C[N+](C)(C)C (configuration not stated) [METHACHOLINE]
AC50 [1]: 0.0079 µM

COc1cc(NCc2ccc3nc(N)nc(N)c3c2C)cc(OC)c1OC [TRIMETREXATE]
AC50 [1]: > 30 µM
